Measured values from ChEMBL document CHEMBL1201862, “PubChem BioAssay data set” (2004).
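Five compound concentrations were applied to cells in 96-well plates for 48 hours; endpoints were derived by simple linear interpolation of the resulting dose-response curve. At the GI50, growth is halved.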 The source made the active and inactive calls. Rule as the data show it: active = GI50 up to about 1.1 µM and inactive = higher.

Tests used:
Test in all cases: inhibition of tumour cell growth, NCI panel, 48 h
[1] = test system: UACC-62
[2] = test system: ACHN
[3] = test system: PC-3
[4] = test system: LOX IMVI
[5] = test system: Malme-3M
[6] = test system: SK-OV-3
[7] = test system: SK-MEL-2
[8] = test system: SF-539
[9] = test system: MDA-MB-435
[10] = test system: SW-620
[11] = test system: SNB-75
[12] = test system: HCC 2998
[13] = test system: OVCAR-5
[14] = test system: IGROV-1
[15] = test system: U-251
[16] = test system: DLD-1
[17] = test system: MDA-N
[18] = test system: UO-31
[19] = test system: NCI-H226
[20] = test system: HOP-62

Structure (SMILES)	GI50 [1]	GI50 [2]	GI50 [3]	GI50 [4]	GI50 [5]	GI50 [6]	GI50 [7]	GI50 [8]	GI50 [9]	GI50 [10]	GI50 [11]	GI50 [12]	GI50 [13]	GI50 [14]	GI50 [15]	GI50 [16]	GI50 [17]	GI50 [18]	GI50 [19]	GI50 [20]
CC(C)(CN1CCCCC1)C(=O)/C=C/c1ccc(/C=C/C(=O)C(C)(C)CN2CCCCC2)cc1	1.02 µM (active)	0.264 µM (active)	0.273 µM (active)	0.268 µM (active)	0.871 µM (active)	1.57 µM (inactive)	1.25 µM (inactive)	0.538 µM (active)	0.421 µM (active)	0.112 µM (active)	0.673 µM (active)	0.35 µM (active)	0.726 µM (active)	0.505 µM (active)	0.273 µM (active)	0.142 µM (active)	0.177 µM (active)	1.14 µM (inactive)	1.84 µM (inactive)	0.946 µM (active)
CN(C)c1n/c(=N/Cc2ccco2)ss1	5.32 µM (inactive)	25.9 µM (inactive)	15.5 µM (inactive)	18.5 µM (inactive)	18.7 µM (inactive)	55.6 µM (inactive)	> 21.1 µM (inactive)	13 µM (inactive)	20.5 µM (inactive)	26.2 µM (inactive)	20.5 µM (inactive)	52.8 µM (inactive)	> 40.5 µM (inactive)	> 54.8 µM (inactive)	31.5 µM (inactive)	14.2 µM (inactive)	16.6 µM (inactive)	28.8 µM (inactive)	62.2 µM (inactive)	24.9 µM (inactive)
